According to patent US20250318998A1, “REMINERALIZING RESTORATIVE COMPOSITIONS AND METHODS THEREOF” (ADA FORSYTH INSTITUTE, INC., priority 2023, published 2025):
Residues, ends and D or L forms follow the SMILES beside them.

Test: Water solubility (statement)
Assay type: physicochemical

## N[C@@H](CC(=O)O)C(=O)N[C@@H](CO)C(=O)N[C@@H](CO)C(=O)N[C@@H](CC(=O)O)C(=O)N[C@@H](CO)C(=O)N[C@@H](CO)C(=O)N[C@@H](CC(=O)O)C(=O)N[C@@H](CO)C(=O)N[C@@H](CO)C(=O)N[C@@H](CC(=O)O)C(=O)N[C@@H](CO)C(=O)N[C@@H](CO)C(=O)N[C@@H](CC(=O)O)C(=O)N[C@@H](CO)C(=O)N[C@@H](CO)C(=O)N[C@@H](CC(=O)O)C(=O)N[C@@H](CO)C(=O)N[C@@H](CO)C(=O)N[C@@H](CC(=O)O)C(=O)N[C@@H](CO)C(=O)N[C@@H](CO)C(=O)N[C@@H](CC(=O)O)C(=O)N[C@@H](CO)C(=O)N[C@@H](CO)C(=O)O [8DSS] (H-DSSDSSDSSDSSDSSDSSDSSDSS-OH; N-terminus and C-terminus assumed)
  water solubility: water soluble
